Measured values from US8362267B2, “Benzophenone thiazole derivatives useful for inhibiting formation of microtubule and method for producing the same” (Chong Kun Dang Pharmaceutical Corp., priority 2008, dated 2013).
In brackets after ≈: the same amount, converted by molar mass. Where two headings read alike, the source gives them in different places.

Tests used:
[1] = tested on: HCT-15 (human colorectal adenocarcinoma, CCL-225); format: in vivo; conditions: HCT-15 xenograft, q4d x 4 (i.p.)
Procedure: (§1) BALB/c male nude mice (4 weeks) available from Central Lab Animal Inc. were used for human xenograft experiments. Sterile food and potable water were freely provided to the mice in an isolated sterile cage and the temperature of the cage was maintained at 23±0.5° C.
(§2) A human cancer model, CX-1 (human colon adenocarcinoma), for xenograft experiment was obtained from the German Cancer Research Center (DKFZ), and HCT-15 (human colorectal adenocarcinoma, CCL-225) and A549 (human lung carcinoma, CCL-185) were obtained from ATCC (American Type Culture Collection, Rockville, Md., USA). Human tumor cells, MKN45 (human gastric adenocarcinoma, #80103) and calu-6 (human lung carcinoma, #30056) were obtained from KCLB (Korean Cell Line. Bank).
(§3) CX-1 was incubated in a 95% air incubator (37° C., 5% CO2) using a DMEM (Dulbecco's Modified Eagle's Medium, Gibco) supplemented with 10% heat-inactivated fetal bovine serum (Gibco) and 1% Antibiotics-Antimycotics (Gibco). Other cell lines were incubated in a 95% air incubator (37° C., 5% CO2) using an RPM1640 (Gibco BRL) medium supplemented with 10% heat-inactivated fetal bovine serum (Gibco) and 1% Antibiotics-Antimycotics (Gibco).
(§4) In vivo human xenograft experiments were performed in accordance with the following procedure. In vitro proliferated human-derived cancer cell lines (CX-1, HCT-15, A549, MKN45, calu-6) were subcutaneously injected into the abdominal region of BALB/c nude mice and were thus proliferated in vivo. After 20 to 25 days, the mice were sacrificed by cervical spine dislocation, solid cancer cells proliferated in the mice were sterilely separated and fresh cancer cells from which connective or necrotic tissues or skin were removed were collected. The fragments of tumor were transplanted to the BALB/c nude mice.
(§5) The mice in which cancer cells were proliferated to a predetermined size were collected on the 15th to 30th day after human-derived cancer models were transplanted into the BALB/c nude mice and then used for the tests. For each experimental group, the drug was injected at a dose of 0.1 mL per 10 g of mouse in accordance with a dose schedule, when tumor cells were grown to a size of 100 to 200 mm^3 after tumor transplantation.
(§6) After administration, antitumor activity was evaluated based upon an antitumor inhibition rate (IR %) of tumor growth, obtained by comparing a tumor volume measured on the final day with a tumor volume of a control group. As the reference drug, AC7700 (Sanofi-Aventis), which is currently undergoing phase III clinical trials, was used. Tumor size=(short diameter)^2×(long diameter)/2 I.R.(%)=[1−(average tumor size of drug-administered group)/(average tumor size of control group)]×100

[2] = tested on: MKN45 (human gastric adenocarcinoma, #80103); test: In vivo antitumor activity, human xenograft, stomach cancer model MKN45
Procedure: as §1, §2, §3, §4, §5, §6

[3] = tested on: calu-6 (human lung carcinoma, #30056); test: In vivo antitumor activity, human xenograft, non-small cell lung cancer model calu-6
Procedure: as §1, §2, §3, §4, §5, §6

[4] = tested on: CX-1 (human colon adenocarcinoma); test: In vivo antitumor activity, human xenograft, colorectal cancer model CX-1; design: species or system BALB/c nude mice; conditions: for Body weight change (%) / Number of dead animals / IR (%): q4d x 4 (i.p.); for animal death / pharmaceutical effects as compared to the reference drug, AC7700 / weight loss: CX-1 xenograft model; for animal death / pharmaceutical effects as compared to the reference drug, AC7700: in words; for weight loss: as compared to the compound 516, in words
Procedure: as §1, §4, §5, §6

[5] = tested on: A549 (human lung carcinoma, CCL-185); test: In vivo antitumor activity, human xenograft, lung cancer model A549
Procedure: as §1, §2, §3, §4, §5, §6

[6] = Measurement of solubility in water (HPLC); format: physicochemical; conditions: thermodynamic from solid; in distilled water, 25° C.
Procedure: The compounds of the present invention were developed to reduce toxicity caused by deposition on organ due to low solubility of compound 516, as confirmed by animal tests. Considering this, solubility of the present compounds in water was thus measured.
The compound was dissolved in acetonitrile to a concentration of 1 mg/mL and the solution was diluted with a mobile phase to a concentration of 5, 12.5, 25, 50 or 100 μg/ml.
1. The compound was added to distilled water such that the concentration of each specimen was adjusted to 10 mg/mL, stirred in a thermostat stirrer (25° C., 200 rpm) for about 7 days, filtered and diluted with a mobile phase to an optimal concentration.
2. The compound was added to distilled water such that the concentration of each specimen was adjusted to 10 mg/mL, sonicated for 30 minutes, stirred for 5 minutes, filtered, sonicated for 30 minutes again and diluted with a mobile phase to an optimal concentration.
Column temperature: 25° C.
Column: Kromasil C8 (4.6×150 mm, 5 μm)
Mobile phase: 20 mM ammonium acetate, pH 5.0/ACN (60/40)

[7] = MKN45 xenograft, 80 mg/kg, q4d x 4 (i.p.)
[8] = calu-6 xenograft, 80 mg/kg, q4d x 4 (i.p.)
[9] = Table 3, CX-1 xenograft, 100 mg/kg
[10] = Table 4, CX-1 xenograft, 100 mg/kg
[11] = A549 xenograft, 80 mg/kg, q4d x 4 (i.p.)
[12] = Table 3, CX-1 xenograft, 5 mg/kg
[13] = MKN45 xenograft, 5 mg/kg, q4d x 4 (i.p.)
[14] = MKN45 xenograft, 7.5 mg/kg, q4d x 4 (i.p.)
[15] = MKN45 xenograft, 10 mg/kg, q4d x 4 (i.p.)
[16] = calu-6 xenograft, 5 mg/kg, q4d x 4 (i.p.)
[17] = calu-6 xenograft, 7.5 mg/kg, q4d x 4 (i.p.)
[18] = calu-6 xenograft, 10 mg/kg, q4d x 4 (i.p.)
[19] = Table 4, CX-1 xenograft, 5 mg/kg
[20] = Table 4, CX-1 xenograft, 10 mg/kg
[21] = A549 xenograft, 5 mg/kg, q4d x 4 (i.p.)
[22] = A549 xenograft, 7.5 mg/kg, q4d x 4 (i.p.)
[23] = A549 xenograft, 10 mg/kg, q4d x 4 (i.p.)
[24] = Table 4, CX-1 xenograft, 20 mg/kg

COc1ccc(/C=C\c2cc(OC)c(OC)c(OC)c2)cc1NC(=O)[C@@H](N)CO [AC7700, reference compound]
Body weight change (%) ([1]; 80 mg/kg): +5.5% | IR (%) ([1]; 80 mg/kg): 66% | Number of dead animals ([1]; 80 mg/kg): 1/6 | Body weight change (%) [2, 7]: +7.8% | IR (%) [2, 7]: 55% | Number of dead animals [2, 7]: 0/6 | Body weight change (%) [3, 8]: +22.4% | IR (%) [3, 8]: 80% | Number of dead animals [3, 8]: 0/6 | Body weight change (%) [4, 9]: +13.2% | Number of dead animals [4, 9]: 2/6 | IR (%) ([4]; Table 3, CX-1 xenograft, 100 mg/kg, tumor volume on final day vs control): 48% | Body weight change (%) [4, 10]: +22.8% | IR (%) [4, 10]: 34% | Number of dead animals [4, 10]: 0/6 | Body weight change (%) [5, 11]: +2.6% | IR (%) [5, 11]: 64% | Number of dead animals [5, 11]: 0/7

COc1cc(C(=O)c2ccc(-c3csc(N)n3)cc2-n2cncn2)cc(OC)c1OC [Compound 516, {4-(2-aminothiazol-4-yl)-2-(1H-1,2,4-triazol-1-yl)phenyl}(3,4,5-trimethoxyphenyl)methanone, reference compound]
solubility [6]: 0.5 mg/mL (≈ 1.14 mM) | animal death [4]: two animals died | pharmaceutical effects as compared to the reference drug, AC7700 [4]: significantly superior pharmaceutical effects | Body weight change (%) [4, 12]: +15.2% | Number of dead animals [4, 12]: 2/6 | IR (%) ([4]; Table 3, CX-1 xenograft, 5 mg/kg, tumor volume on final day vs control): 36%

COc1cc(C(=O)c2ccc(-c3csc(NC(=O)CN)n3)cc2-n2cncn2)cc(OC)c1OC [Compound 615, N-(4-(3-(1H-1,2,4-triazol-1-yl)-4-(3,4,5-trimethoxybenzoyl)phenyl)thiazol-2-yl)-2-aminoacetamide]
solubility [6]: 23.3 mg/mL (≈ 47.1 mM)

COc1cc(C(=O)c2ccc(-c3csc(NC(=O)[C@@H](N)C(C)C)n3)cc2-n2cncn2)cc(OC)c1OC [Compound 624, (S)—N-(4-(3-(1H-1,2,4-triazol-1-yl)-4-(3,4,5-trimethoxybenzoyl)phenyl)thiazol-2-yl)-2-amino-3-methylbutanamide]
Body weight change (%) ([1]; 5 mg/kg): +1.8% | IR (%) ([1]; 5 mg/kg): 12% | Body weight change (%) ([1]; 7.5 mg/kg): +3.2% | IR (%) ([1]; 7.5 mg/kg): 63% | Body weight change (%) ([1]; 10 mg/kg): +6.6% | IR (%) ([1]; 10 mg/kg): 69% | pharmaceutical effects as compared with the reference drug ([2]; MKN45 xenograft model, in words): significantly superior pharmaceutical effects | Body weight change (%) [2, 13]: −11.8% | IR (%) [2, 13]: 21% | Body weight change (%) [2, 14]: +2.9% | IR (%) [2, 14]: 46% | Body weight change (%) [2, 15]: +4.3% | IR (%) [2, 15]: 68% | pharmaceutical effects as compared with the reference drug ([3]; calu-6 xenograft model, in words): significantly superior pharmaceutical effects | Body weight change (%) [3, 16]: +26.2% | IR (%) [3, 16]: 41% | Body weight change (%) [3, 17]: +26.0% | IR (%) [3, 17]: 73% | Body weight change (%) [3, 18]: +20.6% | IR (%) [3, 18]: 82% | solubility [6]: 14.9 mg/mL (≈ 27.8 mM) | weight loss [4]: no weight loss | animal death [4]: no animal death | pharmaceutical effects as compared to the reference drug, AC7700 [4]: significantly superior pharmaceutical effects | Body weight change (%) [4, 19]: +25.7% | IR (%) [4, 19]: 28% | Body weight change (%) [4, 20]: +14.7% | IR (%) [4, 20]: 64% | pharmaceutical effects as compared with the reference drug ([5]; A549 xenograft model, in words): significantly superior pharmaceutical effects | Body weight change (%) [5, 21]: −1.7% | IR (%) [5, 21]: 39% | Body weight change (%) [5, 22]: +1.7% | IR (%) [5, 22]: 61% | Body weight change (%) [5, 23]: −1.2% | IR (%) [5, 23]: 71%

COc1cc(C(=O)c2ccc(-c3csc(NC(=O)[C@@H](N)Cc4ccccc4)n3)cc2-n2cncn2)cc(OC)c1OC [Compound 625]
solubility [6]: 11 mg/mL (≈ 18.8 mM) | weight loss [4]: no weight loss | animal death [4]: no animal death | pharmaceutical effects as compared to the reference drug, AC7700 [4]: significantly superior pharmaceutical effects | Body weight change (%) [4, 19]: +28.9% | IR (%) [4, 19]: 21% | Body weight change (%) [4, 20]: +24.5% | IR (%) [4, 20]: 43%

COc1cc(C(=O)c2ccc(-c3csc(NC(=O)CN(C)C)n3)cc2-n2cncn2)cc(OC)c1OC [Compound 631, N-(4-(3-(1H-1,2,4-triazol-1-yl)-4-(3,4,5-trimethoxybenzoyl)phenyl)thiazol-2-yl)-2-(dimethylamino)acetamide]
weight loss [4]: no weight loss | animal death [4]: no animal death | pharmaceutical effects as compared to the reference drug, AC7700 [4]: significantly superior pharmaceutical effects | Body weight change (%) [4, 19]: +24.8% | IR (%) [4, 19]: 23% | Body weight change (%) [4, 20]: +26.7% | IR (%) [4, 20]: 20% | Body weight change (%) [4, 24]: +20.9% | IR (%) [4, 24]: 37%

COc1cc(C(=O)c2ccc(-c3csc(NC(=O)[C@@H](N)CC(C)C)n3)cc2-n2cncn2)cc(OC)c1OC [Compound 647, (S)—N-(4-(3-(1H-1,2,4-triazol-1-yl)-4-(3,4,5-trimethoxybenzoyl)phenyl)thiazol-2-yl)-2-amino-4-methylpentanamide]
solubility [6]: 12.1 mg/mL (≈ 22 mM)
